Experimental findings from patent US11110088B2, “Imidazopyrazine inhibitors of Bruton's tyrosine kinase” (Acerta Pharma B.V., priority 2015, dated 2021) are described below.

The target in test [1] is BTK (Homo sapiens (Human), UniProt Q06187). Nature of the test: BTK enzyme activity, IMAP assay. The format is biochemical. The conditions noted are these: 60 min pre-incubation; 5 μM ATP. As to the method:
BTK enzyme activity is measured using the IMAP (immobilized metal ion affinity-based fluorescence polarization) assay as outlined below.
BTK enzyme (His-BTK (Millipore catalog #14-552)), is diluted to 0.4 U/mL in KR buffer (10 mM Tris-HCl, 10 mM MgCl2, 0.01% Tween-20, 0.05% NaN3, 1 mM DTT, 2 mM MnCl2, pH 7.2).
(§1) Serial dilutions log 10 from 2 mM to 63.2 nM of test compounds are made in 100% DMSO. The dilutions in DMSO are then diluted 50-fold in KR-buffer. Final compound concentration range in the assay ranged from 10 μM to 0.316 nM.
The assay is performed as follows: 5 μL/well of test compound in KR buffer (final DMSO concentration in the assay is 1%) is mixed with 5 µl/well of 0.4 U/mL BTK enzyme (final concentration in the assay is 0.1 U/mL). Test compounds and BTK enzyme are pre-incubated 60 minutes at room temperature, before adding 5 μL/well of 200 nM Fluorescin labeled substrate peptide (Blk/Lyntide substrate, e.g. #R7188/#R7233, Molecular Devices) in KR-buffer. Final peptide substrate concentration in assay is 50 nM. […] Following incubation for 2 hours at room temperature the enzyme reaction is stopped by adding 40 μL/well IMAP Progressive Binding Solution (according to suppliers (Molecular Devices) protocol using 75% 1× buffer A and 25% 1× buffer B with 1:600 Progressive Binding Solution). After 60 min incubation at room temperature in the dark the FP signal is read. Fluorescence at 535 nm is measured using parallel and perpendicular filters to determine differences in rotation due to binding of the phosphorylated substrate peptide to the beads. Values are calculated as percentage of the difference in readout (ΔmPi) of the controls with and without ATP. IC50 values are determined by curve fitting of the experimental results using Activity Base.

The target in test [2] is Txk (Homo sapiens (Human), UniProt P42681). Nature of the test: TXK enzyme activity, IMAP assay. To be noted: 60 min pre-incubation; 1 μM ATP. The format is biochemical. The protocol: TXK enzyme activity is measured using the IMAP (immobilized metal ion affinity-based fluorescence polarization) assay as outlined below.
Txk, sequence (P42681 whole entry): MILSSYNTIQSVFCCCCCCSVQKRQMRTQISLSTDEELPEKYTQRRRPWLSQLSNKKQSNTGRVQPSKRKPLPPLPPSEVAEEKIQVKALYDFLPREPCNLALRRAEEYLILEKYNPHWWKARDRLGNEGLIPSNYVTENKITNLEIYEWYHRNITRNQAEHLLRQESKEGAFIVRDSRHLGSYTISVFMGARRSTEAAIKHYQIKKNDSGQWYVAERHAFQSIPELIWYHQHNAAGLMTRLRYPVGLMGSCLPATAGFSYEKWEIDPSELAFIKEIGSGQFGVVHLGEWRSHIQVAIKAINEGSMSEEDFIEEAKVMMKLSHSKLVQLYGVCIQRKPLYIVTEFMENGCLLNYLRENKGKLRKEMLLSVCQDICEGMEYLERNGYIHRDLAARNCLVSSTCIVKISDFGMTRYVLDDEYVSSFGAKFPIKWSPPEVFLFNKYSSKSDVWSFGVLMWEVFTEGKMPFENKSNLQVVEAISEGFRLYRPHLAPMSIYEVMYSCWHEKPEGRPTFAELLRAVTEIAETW
TXK enzyme (Millipore #14-761), is diluted to 2.5 U/mL in KR buffer (10 mM Tris-HCl, 10 mM MgCl2, 0.01% Tween-20, 0.1% NaN3, 1 mM DTT, 2 mM MnCl2, pH 7.5).
as §1
The assay is performed as follows: 5 μL/well of test compound in KR buffer (final DMSO concentration in the assay is 1%) is mixed with 5 μL/well of 2.5 U/mL TXK enzyme (final concentration in the assay is 0.625 U/mL (4.4 nM)). Test compounds and TXK enzyme are pre-incubated 60 minutes at room temperature, before adding 5 μL/well of 200 nM Fluorescin labeled substrate peptide (Blk/Lyntide substrate #R7188, Molecular Devices) in KR-buffer. Final peptide substrate concentration in assay is 50 nM. […] Following incubation for 2 hours at room temperature the enzyme reaction is stopped by adding 40 μL/well IMAP Progressive Binding Solution (according to suppliers (Molecular Devices) protocol using 60% 1× buffer A and 40% 1× buffer B with 800× diluted beads (Progressive Binding System, Molecular Devices). After 60 min incubation at room temperature in the dark the FP signal is read. Fluorescence at 535 nm is measured using parallel and perpendicular filters to determine differences in rotation due to binding of the phosphorylated substrate peptide to the beads. Values are calculated as percentage of the difference in readout (ΔmPi) of the controls with and without ATP. IC50 values are determined by curve fitting of the experimental results using Activity Base.

Test [3] addresses Bmx (Homo sapiens (Human), UniProt P51813). Nature of the test: BMX enzyme activity, IMAP assay. The conditions noted are these: 60 min pre-incubation; 5 μM ATP. In kind it is biochemical. The protocol: BMX enzyme activity is measured using the IMAP (immobilized metal ion affinity-based fluorescence polarization) assay as outlined below.
(§2) The dilutions in DMSO are then diluted 50-fold in KR-buffer.
Test compounds and BMX enzyme are pre-incubated 60 minutes at room temperature, before adding 5 μL/well of 200 nM Fluorescin labeled substrate peptide (Blk/Lyntide substrate #R7188, Molecular Devices) in KR-buffer. Final peptide substrate concentration in assay is 50 nM. […] IC50 values are determined by curve fitting of the experimental results using Activity Base.

The target of test [4] is ITK (Homo sapiens (Human), UniProt Q08881). Briefly: ITK enzyme activity, IMAP assay. In kind it is biochemical. The conditions noted are these: 60 min pre-incubation; 5 μM ATP. The protocol: ITK enzyme activity is measured using the IMAP (immobilized metal ion affinity-based fluorescence polarization) assay as outlined below.
ITK, sequence (Q08881 whole entry): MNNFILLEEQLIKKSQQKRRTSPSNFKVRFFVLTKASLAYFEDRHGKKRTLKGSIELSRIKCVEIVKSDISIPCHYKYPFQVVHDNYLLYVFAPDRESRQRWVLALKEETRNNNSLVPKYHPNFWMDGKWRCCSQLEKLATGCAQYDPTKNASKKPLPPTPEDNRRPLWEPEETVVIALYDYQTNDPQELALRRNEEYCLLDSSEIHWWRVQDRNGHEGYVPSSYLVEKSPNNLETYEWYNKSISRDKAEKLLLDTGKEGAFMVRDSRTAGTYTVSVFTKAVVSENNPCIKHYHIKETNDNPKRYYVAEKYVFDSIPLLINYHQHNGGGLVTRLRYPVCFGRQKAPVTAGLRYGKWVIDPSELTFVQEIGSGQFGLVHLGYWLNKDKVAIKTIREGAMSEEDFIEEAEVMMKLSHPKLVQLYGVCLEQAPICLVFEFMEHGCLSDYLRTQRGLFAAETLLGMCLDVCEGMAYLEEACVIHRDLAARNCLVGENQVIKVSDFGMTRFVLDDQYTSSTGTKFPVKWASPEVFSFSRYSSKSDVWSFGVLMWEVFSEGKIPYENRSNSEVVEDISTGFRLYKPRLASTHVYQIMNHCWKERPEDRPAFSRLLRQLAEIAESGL
ITK enzyme (Millipore #14-660M) is diluted to 0.2 U/mL in KR buffer (10 mM Tris-HCl, 10 mM MgCl2, 0.01% Tween-20, 0.1% NaN3, 1 mM DTT, 2 mM MnCl2, pH 7.5)
as §2
Test compounds and ITK enzyme are pre-incubated 60 minutes at room temperature, before adding 5 μL/well of 200 nM Fluorescin labeled substrate peptide (Blk/Lyntide substrate #R8124, Molecular Devices) in KR-buffer. Final peptide substrate concentration in assay is 50 nM. […] IC50 values are determined by curve fitting of the experimental results using Activity Base.

For test [5], the target named is EGFR WT (Homo sapiens (Human), UniProt P00533). Nature of the test: EGFR enzyme activity, IMAP assay. The format is biochemical. The conditions noted are these: 60 min pre-incubation; 2 μM ATP. The protocol: EGFR enzyme activity is measured using the IMAP (immobilized metal ion affinity-based fluorescence polarization) assay as outlined below.
EGFR WT, sequence (P00533 25-1210): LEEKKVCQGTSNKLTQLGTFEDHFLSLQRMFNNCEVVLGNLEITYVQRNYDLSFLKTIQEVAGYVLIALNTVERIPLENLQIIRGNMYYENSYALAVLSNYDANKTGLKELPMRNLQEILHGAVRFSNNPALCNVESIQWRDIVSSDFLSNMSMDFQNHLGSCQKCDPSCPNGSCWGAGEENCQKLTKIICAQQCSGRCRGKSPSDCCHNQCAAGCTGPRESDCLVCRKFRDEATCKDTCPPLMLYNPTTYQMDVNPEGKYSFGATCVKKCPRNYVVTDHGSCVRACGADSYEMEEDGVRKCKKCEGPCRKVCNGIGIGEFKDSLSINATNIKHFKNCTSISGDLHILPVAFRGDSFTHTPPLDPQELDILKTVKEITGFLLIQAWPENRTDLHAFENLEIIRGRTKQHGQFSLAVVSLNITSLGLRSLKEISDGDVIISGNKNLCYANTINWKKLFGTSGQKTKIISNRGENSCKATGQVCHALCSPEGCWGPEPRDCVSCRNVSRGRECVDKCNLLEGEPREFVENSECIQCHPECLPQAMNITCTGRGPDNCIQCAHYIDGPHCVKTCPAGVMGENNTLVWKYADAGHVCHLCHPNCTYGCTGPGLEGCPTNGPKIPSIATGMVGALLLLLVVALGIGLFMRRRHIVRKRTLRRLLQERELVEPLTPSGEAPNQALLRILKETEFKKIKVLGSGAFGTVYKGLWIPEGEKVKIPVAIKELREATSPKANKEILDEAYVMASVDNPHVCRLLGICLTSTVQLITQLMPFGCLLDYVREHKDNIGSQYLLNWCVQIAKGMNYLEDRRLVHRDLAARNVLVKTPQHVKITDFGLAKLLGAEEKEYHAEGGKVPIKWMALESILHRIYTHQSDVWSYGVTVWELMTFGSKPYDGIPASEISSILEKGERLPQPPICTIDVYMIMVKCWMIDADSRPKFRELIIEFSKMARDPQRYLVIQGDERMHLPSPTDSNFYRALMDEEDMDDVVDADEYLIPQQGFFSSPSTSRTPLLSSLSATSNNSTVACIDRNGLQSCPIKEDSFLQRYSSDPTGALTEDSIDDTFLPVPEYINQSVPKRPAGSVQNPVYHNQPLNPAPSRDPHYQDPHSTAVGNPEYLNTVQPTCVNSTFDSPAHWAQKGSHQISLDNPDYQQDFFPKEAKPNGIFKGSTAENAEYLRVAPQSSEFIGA
EGFR enzyme (Invitrogen catalog #PR7295B), is diluted to 2.5 μg/mL in KR buffer (10 mM Tris-HCl, 10 mM MgCl2, 0.01% Tween-20, 0.1% NaN3, 1 mM DTT, 2 mM MnCl2, pH 7.5).
Final peptide substrate concentration in assay is 50 nM. […] Following incubation for 60 min at room temperature in the dark the enzyme reaction is stopped by adding 40 μL/well IMAP Progressive Binding Solution (according to suppliers (Molecular Devices) protocol using 20% 1× buffer A and 80% 1× buffer B with 600× diluted beads). After 60 min incubation at room temperature in the dark the FP signal is read. […] Values are calculated as percentage of the difference in readout (ΔmPi) of the controls with and without ATP. IC50 values are determined by curve fitting of the experimental results using GraphPad Prism6.

For test [6], the system named is CD69 in CD19+ B cells of anti-IgM stimulated PBMCs. Briefly: Human peripheral blood mononuclear cell (PBMC) CD69 assay. To be noted: 2 h compound, then anti-IgM 18 hours. In kind it is cell-based. As to the method:
Example 44—Human Peripheral Blood Mononuclear Cell (PBMC) CD69 Assay
Whole blood was collected in heparin-coated Vacutainer tubes (BD Biosciences, San Jose, Calif.) and used for isolation of PBMCs using Ficoll-Hypaque (Pharmacia, Uppsala, Sweden). Isolated PBMCs were cryopreserved in 90% FCS/10% DMSO until later use.
Cells from cryogenic storage were thawed in a 37° C. water bath, diluted with RPMI/1% FCS, washed 2 times, and then plated at 1×10^5 cells per well in RPMI/10% FCS.
Serial dilutions log 10 from 10 mM to 316 nM of test compounds are made in 100% DMSO, followed by a 100-fold dilution into RPMI/1% FCS. For each well, 10 μL was then transferred to the deep well plate containing 90 μL of PBMC cells. Final compound concentration range in the assay ranged from 10 μM to 0.316 nM, with a final DMSO concentration of 0.1%. PBMCs are then incubated for 2 h at 37° C. in presence or absence of test compounds, prior to stimulation with goat F(ab′)2 anti-IgM (Southern Biotech, #2022-14, final concentration in assay 5 μg/mL) for 18 hours.
Following stimulation with anti-IgM, PBMCs were incubated on ice for 30 min with anti-CD69-FITC, anti-CD19-BV421 (BD Biosciences #555530 and #562440, respectively) and 7AAD (Life Technologies #A1310). Flow cytometry was performed and fluorescence values were obtained from the CD69-FITC channel in CD19+ gated life B cells. ECso values are determined by curve fitting of the experimental results using GraphPad Prism.

BTK, sequence (Q06187 whole entry): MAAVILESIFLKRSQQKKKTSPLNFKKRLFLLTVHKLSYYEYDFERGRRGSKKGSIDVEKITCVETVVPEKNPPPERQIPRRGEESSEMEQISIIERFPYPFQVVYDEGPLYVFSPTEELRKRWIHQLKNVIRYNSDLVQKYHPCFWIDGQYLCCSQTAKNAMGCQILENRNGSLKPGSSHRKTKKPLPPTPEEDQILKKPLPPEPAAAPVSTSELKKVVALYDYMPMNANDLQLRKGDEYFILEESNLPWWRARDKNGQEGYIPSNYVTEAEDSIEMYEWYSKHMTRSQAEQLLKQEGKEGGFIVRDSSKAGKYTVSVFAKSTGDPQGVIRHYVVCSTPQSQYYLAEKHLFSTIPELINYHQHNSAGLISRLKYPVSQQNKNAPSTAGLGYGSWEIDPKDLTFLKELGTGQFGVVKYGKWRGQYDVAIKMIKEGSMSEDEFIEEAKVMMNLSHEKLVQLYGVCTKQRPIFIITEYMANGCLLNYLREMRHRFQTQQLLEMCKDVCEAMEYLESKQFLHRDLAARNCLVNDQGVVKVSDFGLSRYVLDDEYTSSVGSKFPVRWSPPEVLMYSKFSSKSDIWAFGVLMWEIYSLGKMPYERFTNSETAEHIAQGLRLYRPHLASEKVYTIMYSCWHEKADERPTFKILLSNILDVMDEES
Bmx, sequence (P51813 whole entry): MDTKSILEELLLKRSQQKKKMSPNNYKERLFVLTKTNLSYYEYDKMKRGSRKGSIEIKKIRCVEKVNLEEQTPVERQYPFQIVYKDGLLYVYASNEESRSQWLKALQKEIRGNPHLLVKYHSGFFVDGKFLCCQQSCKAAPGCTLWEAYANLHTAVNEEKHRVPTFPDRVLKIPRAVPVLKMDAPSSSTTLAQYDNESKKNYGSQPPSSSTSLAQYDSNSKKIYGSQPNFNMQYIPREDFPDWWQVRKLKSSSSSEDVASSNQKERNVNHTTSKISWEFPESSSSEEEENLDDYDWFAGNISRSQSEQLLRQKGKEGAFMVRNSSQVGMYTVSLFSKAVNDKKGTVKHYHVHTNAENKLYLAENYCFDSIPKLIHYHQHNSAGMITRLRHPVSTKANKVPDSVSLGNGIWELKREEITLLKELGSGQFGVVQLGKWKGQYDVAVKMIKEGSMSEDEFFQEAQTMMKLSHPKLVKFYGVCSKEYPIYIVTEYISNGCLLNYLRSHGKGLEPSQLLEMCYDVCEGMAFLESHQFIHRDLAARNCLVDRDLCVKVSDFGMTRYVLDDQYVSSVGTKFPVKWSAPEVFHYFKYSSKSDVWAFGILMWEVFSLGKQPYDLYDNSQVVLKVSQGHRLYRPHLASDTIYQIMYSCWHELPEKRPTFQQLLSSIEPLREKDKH

As usually defined, the IC50 is the concentration at which inhibition is half-maximal. In general, EC50 refers to the concentration giving half of the maximal effect. A lower EC50 goes with greater potency. Take `CC#CC(=O)N(C)[C@@H](C)c1nc(-c2ccc(C(=O)Nc3ccccn3)c(OC)c2)c2c(N)nccn12`: the half-maximal inhibitory concentration (IC50) in test [1] is 2 nM; in test [2], 3 nM; in test [3], 4.2 nM; in test [4], over 1000 nM; in test [5], over 1000 nM. In test [6] (Homo sapiens, PBMC), this compound had an EC50 of 2.4 nM.

On to `CC#CC(=O)N1CCC[C@H]1c1nc(-c2ccc(C(=O)Nc3nccs3)c(OC)c2)c2c(N)nccn12`, for which the IC50 in test [1] is 3.9 nM; in test [2] it was 7.1 nM; in test [3], 12 nM; in test [4] it was over 1000 nM; in test [5], over 1000 nM. Further, a half-maximal response in test [6] (Homo sapiens, PBMC) (EC50) required 11 nM.

For the compound `CC#CC(=O)N1CCC[C@H]1c1nc(-c2ccc(C(=O)Nc3ccc(C)cn3)c(OC)c2)c2c(N)nccn12`, the IC50 in test [1] was 6.7 nM; in test [2] it was 11 nM; in test [3] it was 11 nM; in test [4] it was over 1000 nM; in test [5], over 1000 nM. The compound further registered an EC50 in test [6] (Homo sapiens, PBMC) of 5.2 nM.

As to `CC#CC(=O)N[C@@H](C)c1nc(-c2ccc(C(=O)Nc3ccc(C)cn3)cc2)c2c(N)nccn12`, the IC50 in test [1] was determined as 1.6 nM; in test [2], 2.1 nM; in test [3] it was 2.9 nM; in test [4], 287 nM. In test [6] (Homo sapiens, PBMC), the EC50 is 1 nM.

Regarding `CC#CC(=O)N[C@@H](C)c1nc(-c2ccc(C(=O)Nc3ccc(C)cn3)c(OC)c2)c2c(N)nccn12`, the IC50 is 1.9 nM in test [1]; 1.7 nM in test [2]; 2.4 nM in test [3]; over 1000 nM in test [4]; over 1000 nM in test [5]. The compound also yielded an EC50 in test [6] (Homo sapiens, PBMC) of 1.3 nM.

In the case of `CC#CC(=O)N(C)[C@@H](C)c1nc(-c2ccc(C(=O)Nc3ccc(C)cn3)cc2)c2c(N)nccn12`, the IC50 in test [1] was found to be 1.8 nM; in test [2], 3.9 nM; in test [3], 4.5 nM; in test [4], 254 nM; in test [5] it was 354 nM. A half-maximal effect in test [6] (Homo sapiens, PBMC) (EC50) was put at 1.7 nM.

Turning to `CC#CC(=O)N(C)[C@@H](C)c1nc(-c2ccc(C(=O)Nc3ccccn3)cc2)c2c(N)nccn12`, the IC50 was 2.1 nM in test [1]; 3.7 nM in test [2]; 7.5 nM in test [3]; over 1000 nM in test [4]; 123 nM in test [5]. This compound also registered an EC50 in test [6] (Homo sapiens, PBMC) of 1.9 nM.

As to `COC/C=C/C(=O)N(C)[C@@H](C)c1nc(-c2ccc(C(=O)Nc3ccc(C)cn3)cc2)c2c(N)nccn12`, the IC50 in test [1] stood at 11 nM; in test [2], 14 nM; in test [3], 15 nM. Besides, in test [6] (Homo sapiens, PBMC), the EC50 amounted to 3.5 nM.

As for `COC/C=C/C(=O)N[C@@H](C)c1nc(-c2ccc(C(=O)Nc3ccc(C)cn3)cc2)c2c(N)nccn12`, the IC50 in test [1] amounted to 2.4 nM; in test [2], 1.5 nM; in test [3], 2.9 nM; in test [4] it was 478 nM; in test [5], 360 nM. In test [6] (Homo sapiens, PBMC), this compound gave an EC50 of 4.2 nM.

As to `CC#CC(=O)N[C@@H](C)c1nc(-c2ccc(C(=O)Nc3cc(C(F)(F)F)ccn3)cc2)c2c(N)nccn12`, the IC50 was 1.8 nM in test [1]; 1.8 nM in test [2]; 1.9 nM in test [3]; 119 nM in test [4]; 327 nM in test [5]. This compound had an EC50 in test [6] (Homo sapiens, PBMC) of 0.7 nM.

`CC#CC(=O)N[C@@H](C)c1nc(-c2ccc(C(=O)Nc3cc(C(F)(F)F)ccn3)c(OC)c2)c2c(N)nccn12`: the concentration for half-maximal inhibition (IC50) in test [1] is 2.2 nM; in test [2], 4.7 nM; in test [3] it was 3.5 nM; in test [4], over 1000 nM; in test [5], over 1000 nM. In addition, the EC50 in test [6] (Homo sapiens, PBMC) came out at 1.4 nM.

As for `COC/C=C/C(=O)N[C@@H](C)c1nc(-c2ccc(C(=O)Nc3ccc(C)cn3)c(OC)c2)c2c(N)nccn12`, the IC50 is 3.9 nM in test [1]; 2.7 nM in test [2]; 3 nM in test [3]; over 1000 nM in test [4]; over 1000 nM in test [5]. This compound came in with an EC50 in test [6] (Homo sapiens, PBMC) of 1.9 nM.

For the compound `CC#CC(=O)N1CCC[C@H]1c1nc(-c2ccc(C(=O)Nc3cscn3)cc2)c2c(N)nccn12`, the concentration for half-maximal inhibition (IC50) in test [1] was 6.3 nM; in test [2] it was 33.5 nM; in test [4], over 1000 nM. For the same compound, the EC50 in test [6] (PBMC) turned out to be 9.5 nM.

Take `CC#CC(=O)N(C)[C@@H](C)c1nc(-c2ccc(C(=O)Nc3ccc(C)cn3)c(OC)c2)c2c(N)nccn12` [drawing 83]: the figures for the IC50 in test [1], in test [2] and in test [3] were 4.2 nM, 12 nM and 16 nM, respectively. In test [6] (Homo sapiens, PBMC), this compound showed an EC50 of 3.7 nM.

`CC#CC(=O)N(C)[C@@H](C)c1nc(-c2ccc(C(=O)Nc3ccc(C)cn3)c(OC)c2)c2c(N)nccn12` [drawing 89]: the values for the IC50 in test [1], in test [2] and in test [3] were 5.1 nM, 5.1 nM and 6.8 nM, respectively. For the same compound, a half-maximal effect in test [6] (EC50) was put at 5.1 nM.
